Reference: US20060277615A1, “Method of determining xenograft responses” (priority 2003, published 2006)

Assays:
[1] = test system: PC3/SFN cells xenografted tumours; test: Urine hCG in nude mice bearing PC3/SFN-hCG(myc)-Amp reporter xenografts; assay type: in vivo, congenitally athymic nude mice; conditions: for increase of normalised urine hCG levels: 48 hours post-dosing vs pre-dose, normalised against urine creatinine, relative to tumour volume; for hCG expression in individual mice compared to vehicle controls: single dose ip (etoposide 40 mg/kg, camptothecin 30 mg/kg), urine 48 hours after drug administration
Experimental: PC3 cells stably transfected with the SFN-hCG(myc)-Amp reporter construct were allowed to grow as solid subcutaneous tumours in congenitally athymic nude mice. The mice were then treated with anticancer drugs that act by inducing G2/M arrest. The drugs chosen for this exemplification were etoposide and camptothecin [12]. […] Wild-type and engineered PC3 tumour cell lines were cultured in RPMI medium supplemented with 10%-15% heat inactivated foetal calf serum, 2 mM L-glutamine, penicillin (50 IU/ml), streptomycin (50 μg/ml). Culture medium for PC3/SFN cells also contained G418 (200 μg/ml). Cultures were incubated in a humidified incubator at 37° C., 5% CO2. Cells were harvested, pooled, centrifuged, and re-suspended in cold medium. This was mixed with an equal volume of cold Matrigel, so that the tumour cell injection solution was a 50:50 mixture of tumour cells/medium and Matrigel for each cell line. Wild type or transfected PC3 cells were injected at 2.5×10^6 per animal. All cell lines were injected in a volume of 100 μl in the right hand flank only. The study consisted of 4 groups in total, each containing 4 animals. One group of mice was implanted with wild type PC3 cells and the remaining 3 groups with engineered cells. Tumour growth was measured twice-weekly following cell implantation until tumours reached 2-5 mm in diameter. Tumour volume (V) was calculated using the formula: V= 4/3π((d1+d2)/4)^3, where d=mean diameter (n=2) Treatment began 5 weeks after tumour implantation. Wild type PC3-xenografted mice remained untreated; all other mice were administered vehicle only (DMSO/saline) or test substances. Single administrations of Camptothecin (30 mg/kg) and Etoposide (40 mg/kg) were administered ip at 10 ml/kg. Additionally, Etoposide (25 mg/kg) was administered to a single group of mice over three consecutive days (ip; 10 ml/kg). Urine samples were harvested before, during and after drug administration. Animals were sacrificed 48 hours after treatment. Urine was analysed for hCG and values normalised against urine creatinine levels.

[2] = test system: PC3 cells stably engineered to contain the SFN-hCG(myc)-Amp construct; test: hCG induction in PC3 cells stably engineered to contain the SFN-hCG(myc)-Amp construct (ELISA of medium); assay type: cell-based, human; conditions: stable PC3 cell line, 24 hours
Experimental: To generate a stable cell line, transfection was carried out as above. After 24 hours the cells were trypsinised and transferred to 10 cm tissue culture dishes (one well of a six well plate per 10 cm dish). The cells were allowed to grow on these dishes for 7 days prior to selection. After this time, G418 (20 ng/ml in cell culture medium) was added and the dishes maintained until colonies became visible (approximately one week). Individual colonies were picked using cloning discs soaked in typsin and transferred to individual wells of a 24 well plate. The colonies were then expanded to 6 well plates then T25 flasks and grown up until sufficient cells were present for use in in vitro inductions and xenograft experiments. Following the generation of a stable cell line containing the SFN-hCG(myc)-Amp reporter construct, the cells were further tested using etoposide. The cells were plated out on 6 well plates and allowed to adhere overnight. The next day they were treated with etoposide (50 or 400 μM) or vehicle (dimethyl sulphoxide). After 24 hours in the presence or absence of etoposide, samples of the medium were taken and assayed for hCG by enzyme-linked immunosorbent assay as above.

[3] = test system: PC3 cells containing the SFN-hCG(myc)-Amp reporter construct; test: hCG induction in PC3 cells transiently transfected with SFN-hCG(myc)-Amp reporter construct (ELISA of medium); assay type: cell-based, human; conditions: 50 μM etoposide, 24 hours, vs untreated
Experimental: The SFN-hCG(myc)-Amp reporter construct was transfected into PC3 cells on 6-well tissue culture plates using FuGene reagent (Roche, Lewes, East Sussex). Construct DNA (equivalent to 1 μg/well) was added to FuGene reagent (3 μl/well) and made up to 100 μl/well with serum free medium. The medium in which the cells were growing was aspirated off and replaced with 100 μl of the above mixture per well. For transient transfections, the cells were used for experiments 24 hours after the addition of the construct.

| SMILES | hCG levels at 24 and 48 hours following a third dose ([1]; 3 consecutive doses of 25 mg/kg ip, 24 and 48 hours after third dose) | normalised hCG expression following the first dose ([1]; 3 consecutive doses of 25 mg/kg ip, after first dose) | normalised hCG expression following a second dose ([1]; 3 consecutive doses of 25 mg/kg ip, after second dose) | anti-tumour effect against the PC3/SFN cells ([1]; 3 consecutive doses of 25 mg/kg ip, inferred from the drop in urine hCG) | increase of normalised urine hCG levels ([1]; single dose 40 mg/kg ip) [fold] | hCG expression in individual mice compared to vehicle controls [1] | amount of hCG secreted at higher concentration ([2]; 400 μM vs 50 μM etoposide) | amount of hCG secreted into the surrounding medium ([2]; etoposide 50 or 400 μM, vs vehicle (dimethyl sulphoxide)) | amount of hCG secreted into the surrounding medium [3] | increase of normalised urine hCG levels ([1]; single dose 30 mg/kg ip) [fold] |
| --- | --- | --- | --- | --- | --- | --- | --- | --- | --- | --- |
| COc1cc([C@@H]2c3cc4c(cc3[C@@H](O[C@@H]3O[C@@H]5CO[C@@H](C)O[C@H]5[C@H](O)[C@H]3O)[C@H]3COC(=O)[C@H]23)OCO4)cc(OC)c1O [etoposide] | dropped to control levels | sharp increase | remained at this level | exhibited an anti-tumour effect | 4.29 | significantly increased | increased | increased | increased | – |
| CC[C@@]1(O)C(=O)OCc2c1cc1n(c2=O)Cc2cc3ccccc3nc2-1 [camptothecin] | – | – | – | – | – | significantly increased | – | – | – | 5.29 |
